# pEC50: −log10 of the molar value. Several values for one entry are separate records, joined by “and”; a condition that tells them apart may be missing. Identical values can stand only once. Like-named read-outs stand apart in the source and are kept apart here.
# How the values were obtained:
# HCoV-OC43 [1] = test: Immunoplaque assay, viral titres of organs and tissues of infected mice; format: in vivo, BALB/c suckling mice
# Method: Next, we characterized the therapeutic efficacy of the DBM in vivo. In this experiment, randomized 5–6-day-old suckling BALB/c mice were orally treated with DBM at concentrations of 500, 200, and 100 mpk 2 hours after being intranasally challenged with HCoV-OC43. Menstruum and VV116 were used as negative and positive controls, respectively. All the mice were sacrificed on Day 5 for organ and sample collection (Fig 4A). The body weight changes of the mice were continuously monitored during the trial. Infection with HCoV-OC43 led to body weight loss in the vehicle-treated mice on Day 5 (Fig 4B). […] The number of viral RNA copies from the brain, spinal cord, lungs, and kidneys were analysed via qRT-PCR, which targeted the HCoV-OC43 nucleocapsid gene sequence. On Day 5, the number of viral RNA copies in the vehicle-treated group reached approximately 10^12 copies in the brain, 10^9 copies in the spinal cord, 10^8 copies in the lungs, and 10^6 copies in the kidney (Fig 4C). In the mice treated with DBM at 500 mpk, the number of viral RNA copies within these organs and tissues was reduced by 1–3 logs compared with the vehicle-treated group. […] Sections of mouse brains, spinal cords, lungs, and kidneys were subjected to immunofluorescence staining with antibodies targeting HCoV-OC43 nucleocapsid proteins.
# Fig 4 In vivo antiviral efficacy of DBM in 5-day-old BALB/c suckling mice infected with HCoV-OC43. A) Schematic of the experimental design for evaluating DBM in suckling mice. Each group consisted of 5-6 suckling mice. The schematic was created by the authors using Adobe Illustrator 2022. B) Body weight changes of mice during the experiment. Body weights were recorded daily and all mice were euthanised on the fifth day after infection. C) Viral RNA copies in the brains, spinal cords, lungs, and kidneys of mice collected on Day 5. After grinding and centrifuging the samples with DMEM, viral copies from the supernatants were tested by qRT-PCR. D) Viral titres in homogenised organs and tissues collected from mice on Day 5. E) Immunofluorescence staining of brain and lung sections from mice treated with different regimens. HCoV-OC43 nucleocapsid proteins were detected by immunofluorescence (green). Cell nuclei were stained with DAPI (blue). Data were statistically analyzed with Student’s T test. *: p ≤ 0.05, **: p ≤ 0.01, ***: p ≤ 0.001, ****: p ≤ 0.0001; ns, not significant. The experiments were repeated three times independently with similar results. […] No numeric values are printed in any panel, and nothing was read off the bars, points or curves.
# RD cells were preseeded onto 24-well plates and incubated at 37 °C for 24 hours until they reached 90% confluence. The supernatants from the homogenized organs and tissues were serially diluted 10-fold in DMEM. Subsequently, 50 μL of each dilution was added to the wells. Following a 1-hour incubation at 37 °C, the inoculum was removed, and 200 μL of overlay medium (DMEM containing 2% FBS and 1.5% carboxymethyl cellulose) was added to the wells. Four days postinfection, the cells were fixed with 4% paraformaldehyde for 2 hours, followed by three washes with phosphate-buffered saline (PBS). The fixed cells were then permeabilized with 0.5% Triton X-100 for 30 minutes and blocked with 5% bovine serum albumin (BSA) for 30 minutes at room temperature. The cells were subsequently incubated with anti-HCoV-OC43 nucleocapsid protein rabbit serum (ABclonal, SA00001–2) as the primary antibody and HRP-conjugated anti-rabbit IgG (Proteintech) as the secondary antibody, followed by staining with a DAB staining kit (TIANGEN, PA110).
# HCoV-OC43 [2] = test: Viral release (intracellular versus supernatant viral RNA); format: cell-based
# Method: To obtain further insight into the stage at which DBM inhibits the replication of HCoV-OC43 and other HCoVs, RD cells were incubated with compounds, including DBM, remdesivir (RDV), and chloroquine (CQ), at different stages of viral infection. Viral RNA from the supernatant was extracted and quantitatively analysed via qRT-PCR. […] For the viral binding assay, cells were cultured in the presence or absence of DBM at different concentrations for 1 hour before being infected with HCoV-OC43 at an MOI of 50, and then were placed on ice for 2 hours for the viral particles to bind to the membrane of the host cells, followed by washing with PBS. […] To determine whether DBM influences viral release, we quantified viral RNA both intracellularly and in the supernatant.
# A) Efficacy of DBM, remdesivir (RDV), and chloroquine (CQ) in inhibiting virus replication at different stages of administration. […] C) Fluorescence images of cell-cell fusion induced by the transient expression of HCoV-OC43 spike proteins and eGFP (green) in RD cells. […] D) Confocal fluorescence microscopy images showing HCoV-OC43 internalization. E) Quantification of intracellular viral particles per cell, based on images obtained from confocal fluorescence microscopy. […] Data were statistically analysed with Student’s T test. *: p ≤ 0.05, **: p ≤ 0.01, ***: p ≤ 0.001, ****: p ≤ 0.0001; ns, not significant. […]
# HCoV-OC43 [3] = test: microbe, parasite or virus in culture; format: cell-based
# mammary tumorigenesis = test system: mammary tumorigenesis; set-up: method as in PMID 11403916; conditions: dietary DBM, mice; cited from earlier work
# in vivo = conditions: Sprague-Dawley, rat, po, 200 mg/kg
smiles,measurement,setting,value
"O=C(CC(=O)c1ccccc1)c1ccccc1 [DBM, dibenzoylmethane]",Viral load in tissue (Fig4D),"HCoV-OC43 [1]; Brain, group G3 DIBEN100, individual mice",2.4E+06 and 2.9E+06 and 1.6E+06 and 1.9E+06 and 2.5E+06 and 2.3E+06
same,Viral load in tissue (Fig4D),"HCoV-OC43 [1]; Brain, group G4 DIBEN200, individual mice",2.4E+05 and 2.9E+05 and 1.6E+05 and 2.0E+05 and 2.5E+05
same,Viral load in tissue (Fig4D),"HCoV-OC43 [1]; Brain, group G5 DIBEN500, individual mice",5.0E+01 and 0.0E+00 and 3.1E+03
same,viral titres of the organs and tissues,HCoV-OC43 [1]; DBM 500 mpk,led to a reduction in viral loads
same,Viral load in tissue (Fig4D),"HCoV-OC43 [1]; Kidney, group G3 DIBEN100, individual mice",229.9 and 104.0 and 219.4 and 123.5 and 219.8 and 790.8
same,Viral load in tissue (Fig4D),"HCoV-OC43 [1]; Kidney, group G4 DIBEN200, individual mice",0.0
same,Viral load in tissue (Fig4D),"HCoV-OC43 [1]; Kidney, group G5 DIBEN500, individual mice",84.6 and 0.0
same,Viral load in tissue (Fig4D),"HCoV-OC43 [1]; Lung, group G3 DIBEN100, individual mice",0.0 and 160.4 and 76.7 and 2219.2 and 1455.2
same,Viral load in tissue (Fig4D),"HCoV-OC43 [1]; Lung, group G4 DIBEN200, individual mice",275.5 and 0.0 and 394.7
same,Viral load in tissue (Fig4D),"HCoV-OC43 [1]; Lung, group G5 DIBEN500, individual mice",0.0 and 290.3
same,Viral load in tissue (Fig4D),"HCoV-OC43 [1]; Spinal Cord, group G3 DIBEN100, individual mice",1299.4 and 4131.1 and 125.4 and 477.6 and 568.4 and 1615.1
same,Viral load in tissue (Fig4D),"HCoV-OC43 [1]; Spinal Cord, group G4 DIBEN200, individual mice",7747.0 and 4670.7 and 4797.6 and 4510.0 and 4954.8
same,Viral load in tissue (Fig4D),"HCoV-OC43 [1]; Spinal Cord, group G5 DIBEN500, individual mice",0.0 and 113.9
same,proportion of viral RNAs released into the supernatant versus controls,HCoV-OC43 [2],No significant difference
same,Proportion of release of HCoV-OC43 RNA,"HCoV-OC43 [2]; DBM-treated samples, replicates",0.9 and 1.5 and 5.8
same,resistance of the virus after consecutive passages,HCoV-OC43 [3]; 17 consecutive passages in the presence of DBM,did not develop significant resistance
same,pEC50,"HCoV-OC43 [3]; Betacoronavirus 1, OC43, read-out: EC50 of DBM against HCoV-OC43 passaged with DBM",6.07
same,pEC50,"HCoV-OC43 [3]; Betacoronavirus 1, OC43, read-out: EC50 of DBM against HCoV-OC43 passaged with DMSO",6.24
same,viral inhibition,"HCoV-OC43 [3]; DBM (virus passaged with DBM), concentration 1.7",93.4 and 85.2
same,viral inhibition,"HCoV-OC43 [3]; DBM (virus passaged with DBM), concentration 5.0",99.5
same,viral inhibition,"HCoV-OC43 [3]; column head DMSO (virus passaged with DMSO), concentration 5.0",100.0
same,reduction of tumor incidence,mammary tumorigenesis,97%
same,AUC(0-t),in vivo,34300 ng·h/mL
same,Cmax,in vivo,4760 ng/mL
same,half-life,in vivo,2.91 h
